Measurements reported in PubChem BioAssay AID1626 (SRMLSC, 2009).

System: M. tuberculosis H37Rv growth inhibition
Experiment: M. tuberculosis H37Rv growth inhibitors, H37Rv strain (AID 1626)
Conditions: for IC90: measured here: IC90 against H37Rv; for CC50: measured here: Vero cell cytotoxicity

COC(=O)CSc1nnc(-c2ccc(NS(=O)(=O)c3ccccc3)cc2)o1
IC50: 1.9 µM
IC90: 5.72 µM

COc1ccc(N2CSC3=C(C#N)C(c4cccc(OC)c4OC)CC(=O)N3C2)cc1 (stereo not given)
IC50: 54.7 µM
IC90: > 100 µM

CCOc1ccc(NCC(=O)Nc2ccc(C)cc2C)cc1
IC50: 62.4 µM
IC90: > 100 µM

CC(C)(C)C(=O)Nc1ccc(-c2nc3ccccc3c(=O)o2)cc1
IC50: 9.98 µM
IC90: 20.2 µM

CCc1cc2cc(C(=O)Nc3ccc(C)cc3)sc2s1
IC50: 1.34 µM
IC90: 1.81 µM

O=C(Nc1nnc(-c2cccnc2)o1)c1cccc(Cl)c1
IC50: 3.27 µM
IC90: > 100 µM
CC50: 33.7 µM

COc1ccc(N2CCN(c3nc(NC(C)(C)C)nc(N4CCCCC4)n3)CC2)cc1
IC50: 3.75 µM
IC90: 5.86 µM
CC50: > 40 µM

CSc1ccc(NC(=O)N2CCN(c3nc4ccccc4s3)CC2)cc1
IC50: 9.18 µM
IC90: > 100 µM
CC50: > 40 µM

CC(C)c1ccc(Nc2nc(NCc3ccco3)nc(N3CCOCC3)n2)cc1
IC50: 4.99 µM
IC90: 8.29 µM
CC50: 34.6 µM

CCOC(=O)c1ccc2ncc(C(=O)OCC)c(Nc3ccc(N4CCOCC4)cc3)c2c1
IC50: 10.9 µM
IC90: 22.7 µM
CC50: > 40 µM

Cc1cccc(N=C2NN=C(c3c(C)[nH]c4ccccc34)CS2)c1
IC50: 10.4 µM
IC90: 16.3 µM
CC50: 38.6 µM

CCOC(=O)C1=Nc2ccccc2C1=[N+]=[N-]
IC50: 0.906 µM
IC90: 1.23 µM
CC50: 36.7 µM

Cc1nc2cc(C(=O)OCC(=O)NC34CC5CC(CC(C5)C3)C4)ccc2n1-c1ccccc1
IC50: 7.9 µM
IC90: 12.1 µM

N=C1S/C(=C\c2ccc(-c3cccc(Cl)c3)o2)C(=O)N1c1nccs1
IC50: < 0.195 µM
IC90: 13.9 µM
CC50: 5.77 µM

Cc1ccsc1C(=O)Nc1nc2ccccc2[nH]1
IC50: 20.4 µM
IC90: > 100 µM
CC50: 25.3 µM

CCOc1ccc(N=Cc2c(O)n(-c3cccc(C)n3)c(=O)c3ccccc23)cc1
IC50: 14.7 µM
IC90: > 100 µM

c1ccc(-c2nc(NCCCn3ccnc3)c3oc4ccccc4c3n2)cc1
IC50: 2.81 µM
IC90: 3.16 µM
CC50: > 40 µM

Cc1nn2c(NCCCN(C)C)c3c(nc2c1-c1ccccc1)CCC3
IC50: 45.7 µM
IC90: 50.1 µM
CC50: 23.2 µM

Oc1cc(-c2ccccc2)c2ccccc2c1
IC50: 27.2 µM
IC90: > 100 µM
CC50: > 40 µM

CCOc1ccc2nc(NC(=O)C(CC)Sc3nc(C)cc(=O)[nH]3)sc2c1 (stereo not given)
IC50: 35.7 µM
IC90: > 100 µM
CC50: > 40 µM

O=C(/C=C/c1ccccc1)c1c(O)n(CCc2ccccc2)c(=O)[nH]c1=O
IC50: 9.75 µM
IC90: 11.6 µM
CC50: 37.1 µM

CCOC(=O)C(/C=C(\C#N)C(=O)OCC)=C(/N)N1CCN(c2ccc(Cl)cc2)CC1
IC50: 11.7 µM
IC90: 13 µM

Cc1cccc(/C=c2\s/c(=C\C(=O)C(C)(C)C)[nH]c2=O)c1
IC50: 0.465 µM
IC90: 11.6 µM
CC50: 29 µM

O=C(OCC#CCSc1nnc(-c2ccc(Br)cc2)o1)c1cccs1
IC50: < 0.195 µM
IC90: 2.44 µM

CCOC(=O)c1ccc(NC(=O)c2cc3ccccc3o2)cc1
IC50: 4.67 µM
IC90: > 100 µM

Cc1ccc2c(c1)c1c(n2CC(O)CNC2CCCCC2)CCCC1 (stereo not given)
IC50: 6.83 µM
IC90: 10.2 µM
CC50: 15.1 µM

O=C(CSc1nc2ccc(Cl)cc2[nH]1)Nc1ccc2c(c1)CCC2
IC50: 29.8 µM
IC90: > 100 µM
CC50: > 40 µM

COc1ccc(SN=C2C(C)=CC(=O)C=C2C)cc1
IC50: 11 µM
IC90: 12.3 µM

CCOc1ccc(N=C(/C(C(=O)C(=O)N2CCOCC2)=C(\O)c2ccccc2)c2ccccc2)cc1
IC50: 38.6 µM
IC90: > 100 µM

COc1ccc(NC(=O)c2nc[nH]c2C(=O)N[C@@H](C)c2ccccc2)cc1
IC50: 5.7 µM
IC90: 22.4 µM
CC50: > 40 µM

CCOC(=O)C1=C(c2ccccc2)N=c2s/c(=C\c3ccc(O)cc3)c(=O)n2C1c1cccs1 (stereo not given)
IC50: 8.75 µM
IC90: > 100 µM
CC50: > 40 µM

CCCCCCn1c(=O)c(C(=O)Nc2nnc(C)s2)c(O)c2ccccc21
IC50: 4.65 µM
IC90: 6 µM
CC50: > 40 µM

O=C(COc1ccc(Nc2ccccc2)cc1)OCC(=O)N1CCCCC1
IC50: 19.5 µM
IC90: > 100 µM

O=C(Nc1ccc2c(c1)OCCO2)c1cccc2nc3ccccc3nc12
IC50: < 0.195 µM
IC90: 2.17 µM
CC50: > 40 µM

COc1cc(NC(=O)c2ccc(Cl)cc2)c(OC)cc1NC(=O)CN1CCCCC1
IC50: 8.74 µM
IC90: 16.9 µM

O=C(O)c1ccc(-c2nc(-c3ccc(Cl)cc3)cs2)cc1
IC50: 88.6 µM
IC90: > 100 µM
CC50: > 40 µM

COc1cccc2c1nc(C)c1cc(C)oc12
IC50: 5.65 µM
IC90: > 100 µM
CC50: > 40 µM

O=C(Nc1ccc(-c2csnn2)cc1)C1CC1
IC90: > 100 µM

NC1CCN(c2c(F)cc3c(=O)c(C(=O)O)cn(C4CC4)c3c2Cl)C1 (stereo not given)
IC50: < 0.391 µM
IC90: < 0.391 µM

Nc1[nH]n2c(=O)c3c(nc2c1N=Nc1ccc(Cl)cc1)CCCC3
IC50: 10.7 µM
IC90: 21.5 µM
CC50: 25.4 µM

O=C(CC(=O)c1ccccc1O)c1cccc(F)c1
IC50: 18.4 µM
IC90: 29.2 µM
CC50: > 40 µM

Cc1ccc(Sc2cc(C)nc(-c3ccccn3)n2)cc1
IC50: 2.26 µM
IC90: 15.7 µM
CC50: 10.8 µM

O=C(/C=C/c1ccc(Cl)cc1Cl)N1CCN(c2ccc([N+](=O)[O-])c(N3CCOCC3)c2)CC1
CC50: > 40 µM

CCN(CC)CCN1c2ccccc2Sc2ccc3ccccc3c21
IC50: 10.4 µM
IC90: 18.9 µM
CC50: > 40 µM

O=C(C1CCN(c2nnc(-n3cccc3)s2)CC1)N1CCN(c2cccc(C(F)(F)F)c2)CC1
IC50: 0.258 µM
IC90: 1.05 µM
CC50: > 40 µM

Cc1ccc(-c2ccc(C3C(C#N)=C(N)Oc4n[nH]c(C)c43)o2)cc1 (stereo not given)
IC50: 2.37 µM
IC90: > 100 µM
CC50: > 40 µM

Cc1cc(/C=N/n2cnnc2)c(C)n1-c1ccc(OCc2ccc(Cl)cc2Cl)cc1
IC50: 8.02 µM
IC90: 15 µM
CC50: 21.6 µM

CCOc1ccc(NC2C=CS(=O)(=O)C2)cc1 (stereo not given)
IC90: > 100 µM

CCOC(=O)CSc1ncc(-c2cccc(Cl)c2)cn1
IC50: 1.35 µM
IC90: 3.11 µM

Cc1ccc(S(=O)(=O)NCCC(=O)Nc2ccc(C)c(Cl)c2)cc1C
IC50: 19.8 µM
IC90: > 100 µM
CC50: > 40 µM

O=C1CCC(=O)N1CNc1ccc(Oc2ccccc2)cc1
IC50: 2.58 µM
IC90: > 100 µM

N=C1/C(=C/c2ccc(OC(=O)c3ccco3)cc2)C(=O)N=C2SC=CN12
IC90: > 100 µM

Cc1ccc(S(=O)(=O)NC(=O)Nc2nc(-c3ccc(F)c(F)c3)cs2)cc1
IC50: 6.15 µM
IC90: > 100 µM

O=C(Nc1nc2ccccc2[nH]1)c1ccc(Cl)c([N+](=O)[O-])c1
IC50: 13.7 µM
IC90: > 100 µM
CC50: > 40 µM

O=C(Nc1ccc(F)cc1F)Nc1csc2ccccc12
IC50: < 0.391 µM
IC90: 52.7 µM
CC50: > 40 µM

C#CCOCCOCCOCCNc1nc(N2CCN(C(=O)[C@H](Cc3ccc(O)cc3)n3cc([C@@H](N)C(C)CC)nn3)CC2)nc(N2CCN(C(=O)[C@H](Cc3cc4ccccc4[nH]3)n3cc([C@@H](N)CC(C)C)nn3)CC2)n1 (stereo not given in full)
IC50: 7.36 µM
IC90: 21.5 µM

CC(=O)OCCCNc1cc(Sc2nc3ccccc3s2)c2nonc2c1[N+](=O)[O-]
IC50: 7.74 µM
IC90: 10.1 µM
CC50: 16.3 µM

CC(C)(C)c1ccccc1OCCCCCn1ccnc1
IC50: 8.29 µM
IC90: 10.9 µM
CC50: > 40 µM

Clc1ccc(-[n+]2c(-c3cccc(Br)c3)[nH]c3nc4ccccc4nc32)cc1
IC90: > 100 µM
CC50: > 40 µM

COc1ccc(C[C@H]2CN3C(=NC[C@@H]3Cc3ccc(O)cc3)N2C[C@H](C)NC(=O)c2ccc(C)c(Br)c2)cc1
IC50: 6.33 µM
IC90: 9.21 µM

O=[N+]([O-])c1ccc(-n2nnnc2-c2ccccc2)c([N+](=O)[O-])c1
IC50: 5.8 µM
IC90: 9.88 µM
CC50: 10.7 µM

COc1ccc(C(CCN2CCCCC2)c2c(OC)cc(OC)c3c(-c4ccccc4)cc(=O)oc23)cc1 (stereo not given)
IC50: 7.16 µM
IC90: 10.9 µM
CC50: 16 µM

O=C(Nc1cc(Cl)ccc1O)c1cc2n(n1)C(C(F)(F)F)CC(c1ccc3c(c1)OCO3)N2 (stereo not given)
CC50: > 40 µM

CCn1c(=O)c(C(=O)Nc2nc3ccccc3[nH]2)c(O)c2ccccc21
IC50: 0.388 µM
IC90: 0.423 µM
CC50: > 40 µM

CCOC(=O)c1cnc(-n2nc(C)cc2C)nc1Nc1ccc(N(C)C)cc1
IC50: < 0.195 µM
IC90: < 0.195 µM
CC50: 23.9 µM

CC(=O)C1=C(C)NC(SCC(=O)c2ccc(F)cc2)=C(C#N)C1c1ccco1 (stereo not given)
IC50: 11.7 µM
IC90: 21.1 µM
CC50: > 40 µM

CC(C)(C)c1cc(NCCCn2ccnc2)n2ncc(-c3ccccc3)c2n1
IC50: 1.76 µM
IC90: 2.89 µM
CC50: 15.9 µM

CN1/C(=C/C(=O)c2nc(S(C)(=O)=O)ncc2Cl)C(C)(C)c2ccccc21
IC50: 12 µM
IC90: 13.7 µM
CC50: > 40 µM

Cc1ccc(OCCN2CCN(CC(O)Cn3c4ccccc4c4ccccc43)CC2)cc1 (stereo not given)
IC50: 9.21 µM
IC90: 11.4 µM
CC50: 21.5 µM

Cc1cc(N2CCC(C)CC2)nc(-n2nc(C)cc2C)n1
IC50: 3.18 µM
IC90: > 100 µM
CC50: 16.5 µM

CCCCOC(=O)c1ccc(OC(=O)c2cccnc2)cc1
IC50: 7.04 µM
IC90: > 100 µM
CC50: > 40 µM

O=C(Cc1cccs1)Nc1cccc(-c2nc3cc4ccccc4cc3[nH]2)c1
IC50: 15.5 µM
IC90: 24.3 µM
CC50: 21 µM

CCOC(=O)c1ccc(NC(=O)c2ccc(OC(C)C)c(OC)c2)cc1
IC50: 14.1 µM
IC90: 28.2 µM

COc1ccc(NC(=O)c2ccc(OC(F)F)cc2)cc1Cl
IC50: 20.7 µM
IC90: > 100 µM

CCc1ccc(NC(=O)CSc2nnc(-c3ccccn3)n2C)cc1
IC90: > 100 µM

COc1ccc2nc(SCC(=O)Nc3ccc4c(c3)CCC4)[nH]c2c1
IC50: 15.6 µM
IC90: > 100 µM

CCOc1ccc(NCc2nnc(SCc3ccc(Cl)cc3)n2-c2ccccc2)cc1
CC50: > 40 µM

O=Cc1ccc(-c2ccc(Cl)cc2Cl)[nH]1
IC50: 8.46 µM
IC90: > 100 µM
